Assay results published in patent publication US20050059726A1, “Pyrrolidine-2-ones as factor xa inhibitors” (priority 2001, published 2005).
Counter-ions that a name gives are not always drawn.

Biological target: human Factor Xa (Homo sapiens, UniProt P00742)
Test: In vitro assay for inhibition of Factor Xa (2), fluorogenic assay
Assay type: biochemical
Conditions: substrate Rhodamine 110, bis-(CBZ-glycylglycyl-L-arginine amide 10 μM), Ki calculated from IC50
Procedure: In Vitro Assay for Inhibition of Factor Xa (2)
All other compounds of the present invention were tested for their Factor Xa inhibitory activity as determined in vitro by their ability to inhibit human Factor Xa in a fluorogenic assay, using Rhodamine 110, bis-(CBZ-glycylglycyl-L-arginine amide as the fluorogenic substrate. Compounds were diluted from a 10 mM stock solution in dimethylsulfoxide at appropriate concentrations. Assay was performed at room temperature using buffer consisting of: 50 mM Tris-HCl, 150 mM NaCl, 5 mM CaCl2, pH 7.4. containing human Factor Xa (final conc. Of 0.0003U.ml−1). Compound and enzyme were preincubated for 15 min prior to addition of the substrate (final conc. of 10 μM). The reaction was stopped after 3 hrs with the addition of H-D-PHE-PRO-ARG-Chloromethylketone. […] To obtain IC50 values the data were analysed using ActivityBase® and XLfit®.
Calculation of Ki values:
Ki=IC50/(1+[Substrate]/Km)
The Ki value for the above assay can be obtained by dividing the IC50 value by 1.6.

human Factor Xa, sequence (P00742 235-488 limits assumed): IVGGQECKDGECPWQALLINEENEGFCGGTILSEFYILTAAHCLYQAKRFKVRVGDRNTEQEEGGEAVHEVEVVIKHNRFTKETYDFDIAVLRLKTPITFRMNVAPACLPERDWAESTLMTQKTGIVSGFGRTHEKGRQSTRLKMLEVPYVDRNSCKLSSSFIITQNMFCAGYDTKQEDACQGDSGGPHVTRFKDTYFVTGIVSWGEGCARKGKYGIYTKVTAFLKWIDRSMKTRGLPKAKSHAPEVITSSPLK
human Factor Xa, sequence (P00742 41-179 partner limits assumed): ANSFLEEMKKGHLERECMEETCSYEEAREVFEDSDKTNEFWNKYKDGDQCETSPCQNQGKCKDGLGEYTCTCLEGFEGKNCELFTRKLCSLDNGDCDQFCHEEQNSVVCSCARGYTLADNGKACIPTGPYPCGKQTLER

Row | Ki [nM] | SMILES
1 | < 1000 | CC(C)N(C)C(=O)c1ccc(N2CC[C@H](NS(=O)(=O)c3cc4ccc(Cl)cc4s3)C2=O)c(F)c1 [Example 111, 4-((3S)-3-{[(6-Chloro-1-benzothien-2-yl)sulfonyl]amino}-2-oxopyrrolidin-1-yl)-3-fluoro-N-isopropyl-N-methylbenzamide]
2 | < 10 | C[N+](C)(CC(N)=O)Cc1nccn1-c1ccc(N2CC[C@H](NS(=O)(=O)c3cc4ccc(Cl)cc4s3)C2=O)c(F)c1 [Example 144, 2-Amino-N-({1-[4-((3S)-3-{[(6-chloro-1-benzothien-2-yl)sulfonyl]amino}-2-oxopyrrolidin-1-yl)-3-fluorophenyl]-1 H-imidazol-2-yl}methyl)-N,N-dimethyl-2-oxoethanaminium Formate]
3 | < 20 | C/C(=C\S(=O)(=O)N[C@H]1CCN(c2ccc(NS(C)(=O)=O)cc2F)C1=O)c1ccc(Cl)s1 [Example 137, (1E)-2-(5-Chlorothien-2-yl)-N-((3S)-1-{2-fluoro-4-[(methylsulfonyl)amino]phenyl}-2-oxopyrrolidin-3-yl)prop-1-ene-1-sulfonamide]
4 | < 20 | O=C1[C@@H](NS(=O)(=O)CCc2ccc(Cl)s2)CCN1c1ccc(I)cn1 [Example 132, 2-(5-Chlorothien-2-yl)-N-[(3S)-1-(5-iodopyridin-2-yl)-2-oxopyrrolidin-3-yl]ethane-1-sulfonamide]
5 | < 10 | CN(C)C(=O)c1ccc(N2CC[C@H](NS(=O)(=O)c3cc4ccc(Cl)cc4s3)C2=O)c(F)c1 [Example 109, 4-((3S)-3-{[(6-Chloro-1-benzothien-2-yl)sulfonyl]amino}-2-oxopyrrolidin-1-yl)-3-fluoro-N,N-dimethylbenzamide]
6 | < 10 | NC(=O)CN([C@H]1CCN(c2ccc(C(N)=O)cc2F)C1=O)S(=O)(=O)/C=C/c1ccc(Cl)s1 [Example 133, 4-[(3S)-3-((2-Amino-2-oxoethyl){[(E)-2-(5-chlorothien-2-yl)ethenyl]sulfonyl}amino)-2-oxopyrrolidin-1yl]-3-fluorobenzamide]

The next lines start with the molecule.

Row | SMILES | Ki [nM]
7 | NS(=O)(=O)c1ccccc1-c1ccc(N2CC[C@H](NS(=O)(=O)c3cc4ccc(Cl)cc4s3)C2=O)c(F)c1 [Example 15, N-{(3S)-1-[2′-(Aninosulfonyl)-3-fluoro-1,1′-biphenyl-4-yl]-2-oxopyrrolidin-3-yl}-6-chloro-1-benzothiophene-2-sulfonamide] | < 10
8 | O=C1[C@@H](NS(=O)(=O)c2ccc(-c3ccc(Cl)s3)s2)CCN1c1ccc([N+](=O)[O-])cc1F [Example 96, 5′-Chloro-N-[(3S)-1-(2-fluoro-4-nitrophenyl)-2-oxopyrrolidin-3-yl]-2,2′-bithiophene-5-sulfonamide] | < 20
9 | O=C1[C@@H](NS(=O)(=O)c2ccc3cc(Cl)ccc3c2)CCN1c1ccc(-c2ccoc2)cc1F [Example 65, 6-Chloro-N-{(3S)-1-[2-fluoro-4-(3-furyl)phenyl]-2-oxopyrrolidin-3-}naphthalene-2-sulfonamide] | < 200
10 | NCc1cccc(-c2ccc(N3CC[C@H](NS(=O)(=O)c4ccc5cc(Cl)ccc5c4)C3=O)c(F)c2)c1 [Example 64] | < 10
11 | CS(=O)(=O)c1ccccc1-c1ccc(N2CC[C@H](N(CCN3CCOCC3)S(=O)(=O)/C=C/c3ccc(Cl)s3)C2=O)nc1 [Example 42, (E)-2-(5-Chlorothien-2-yl)-N-((3S)-1-{5-[2-(methylsulfonyl)Phenyl]pyridin-2-yl}-2-oxopyrrolidin-3-yl)-N-(2-morpholin-4-ylethyl)ethenesulfonamide Formate Salt (1:1)] | < 10
12 | CS(=O)(=O)c1ccccc1-c1ccc(N2CC[C@H](NS(=O)(=O)c3cnc(-c4ccc(Cl)s4)s3)C2=O)c(F)c1 [Example 86, 2-(5-Chlorothien-2-yl)-N-{(3S)-1-[3-fluoro-2′-(methylsulfonyl)-1,1′-biphenyl-4-yl]-2-oxopyrrolidin-3-yl}-1,3-thiazole-5-sulfonamide] | < 20
